Experimental data taken from PMC4452637, “Identification of positron emission tomography (PET) tracer candidates by prediction of the target-bound fraction in the brain” (EJNMMI Research, 2014).
Where two headings read alike, the source gives them in different places.

What was measured:
[1] = molecular target: NET; conditions: literature value; 76 (Additional file 1); cited from earlier work
[2] = system: D2; conditions: PET, cited from earlier work
[3] = High-throughput brain slice method (Vu,brain); conditions: unbound volume of distribution in brain, measured in rat brain slices, LC-MS/MS (no fu,brain tabulated in Table S1)
[4] = molecular target: Amyloid; design: method as in ref 12, 13, 14, 15 (Additional file 1); conditions: literature value; 15 (Additional file 1); cited from earlier work
[5] = molecular target: AchE; conditions: literature value; ref 18 (Additional file 1); cited from earlier work
[6] = design: method as in ref 10 (a number printed in a supplementary file, which may have a reference list of its own: not looked up in the article's list); conditions: unbound fraction in homogenized brain tissue, reported; cited from earlier work
[7] = Unbound fraction in brain homogenate (fu,brain); Vu,brain calculated from it with pH-partition model; conditions: calculated from reported fu,brain and tracer pKa with pH-partition model (tracers with fu,brain tabulated, footnote h of Table S1)
Procedure: The unbound volume of distribution in the brain (Vu,brain) describing the extent of non-specific partitioning was determined for 31 tracers using a previously described high-throughput brain slice method [11].

[8] = molecular target: D2; design: method as in ref 22, 31, 62, 82 (Additional file 1); conditions: literature value; 82 (Additional file 1); cited from earlier work
[9] = molecular target: GABA; design: method as in ref 33, 74 (Additional file 1); conditions: literature value; 74 (Additional file 1); cited from earlier work
[10] = molecular target: KOR; design: method as in ref 35 (Additional file 1); conditions: literature value; ref 35 (Additional file 1); cited from earlier work
[11] = molecular target: NK1; design: method as in ref 36 (Additional file 1); conditions: literature value; ref 36 (Additional file 1); cited from earlier work
[12] = molecular target: H3; design: method as in ref 38 (Additional file 1); conditions: literature value; ref 38 (Additional file 1); cited from earlier work
[13] = molecular target: SERT; design: method as in ref 5, 19, 43, 45, 67 (Additional file 1); conditions: literature value; 67 (Additional file 1); cited from earlier work
[14] = molecular target: CB1r; design: method as in ref 48 (Additional file 1); conditions: literature value; ref 48 (Additional file 1); cited from earlier work
[15] = molecular target: DAT; design: method as in ref 26, 31, 57 (Additional file 1); conditions: literature value; 57 (Additional file 1); cited from earlier work
[16] = system: nAChr a4b2; conditions: PET, thalamus, ref 3 (Additional file 1), cited from earlier work
[17] = system: Amyloid; conditions: PET, cortex, 61 (Additional file 1), cited from earlier work
[18] = system: 5HT2a; conditions: PET, temporal cortex, 47 (Additional file 1), cited from earlier work
[19] = system: DAT; conditions: PET, striatum, 58 (Additional file 1), cited from earlier work
[20] = molecular target: TSPO; design: method as in ref 28, 29, 55 (Additional file 1); conditions: literature value; 55 (Additional file 1); cited from earlier work
[21] = system: TSPO; conditions: PET, basal ganglia, 81 (Additional file 1), cited from earlier work
[22] = system: 5HT1a; conditions: PET, hippocampus, 65 (Additional file 1), cited from earlier work
[23] = caudate/striatum, ref 23 (Additional file 1)

In the case of `CNCCC(Oc1ccccc1OC)c1ccccc1` (racemic) [[^11C]Nisoxetine], the Kd [1] is given as 0.73 nM.
In the case of `CCN1CCC[C@H]1CNC(=O)c1c(O)c(Cl)cc(Cl)c1O[11CH3]` (racemic) [[^11C]Raclopride], the “BP ND” value [2, 23] is listed as 2.6.
For `Cc1ccc(N2CCN([11CH3])CC2)c2oc(C(=O)Nc3ccc(N4CCOCC4)cc3)cc(=O)c12` [[^11C]AZ10419369], the “V u,brain” value [3] was 30 mL/g brain.
In the case of `CNc1ccc(-c2nc3ccc(O)cc3s2)cn1` [[^11C]AZD2184], the Kd [4] is given as 4.9 nM.
With `[11CH3]Nc1ccc(-c2nc3ccc(O)cc3s2)cn1` [[^11C]AZD2184] the “V u,brain” value [3] was 33 mL/g brain.
For `CN1C(=O)Cc2cc3c(CCC4CCN(Cc5ccccc5)CC4)noc3cc21` [[^11C]CP-126998], the Kd [5] is given as 0.48 nM.
In the case of `[11CH3]N1C(=O)Cc2cc3c(CCC4CCN(Cc5ccccc5)CC4)noc3cc21` [[^11C]CP-126998], the “fu,brain” value [6] is given as 0.07 and the “V u,brain” value [7] is given as 41 mL/g brain.
For `CN([11CH3])Cc1ccccc1Sc1ccc(C#N)cc1N` [[^11C]DASB], the “fu,brain” value [6] is given as 0.09 and the “V u,brain” value [7] is given as 31 mL/g brain.
In the case of `CCN1CCC[C@H]1CNC(=O)c1cc(Br)cc(OC)c1OC` [[^11C]FLB457], the Kd [8] is listed as 0.02 nM.
For `CCN1CCC[C@H]1CNC(=O)c1cc(Br)cc(OC)c1O[11CH3]` [[^11C]FLB457], the “fu,brain” value [6] is given as 0.11 and the “V u,brain” value [7] is given as 26 mL/g brain.
For `CCOC(=O)c1ncn2c1CN(C)C(=O)c1cc(F)ccc1-2` [[^11C]Flumazenil], the Kd [9] is given as 0.7 nM.
For `COC(=O)N1CCN(C(=O)Cc2ccc(Cl)c(Cl)c2)[C@H](CN2CCCC2)C1` [[^11C]GR103545], the Kd [10] is listed as 0.048 nM.
In the case of `[11CH3]OC(=O)N1CCN(C(=O)Cc2ccc(Cl)c(Cl)c2)[C@H](CN2CCCC2)C1` [[^11C]GR103545], the “fu,brain” value [6] is listed as 0.07 and the “V u,brain” value [7] is listed as 41 mL/g brain.
For `COc1ccc(-n2nnnc2C(F)(F)F)cc1CN[C@H]1CCCN[C@H]1c1ccccc1` [[^11C]GR205171], the Kd [11] is listed as 0.016 nM, the “fu,brain” value [6] is listed as 0.05 and the “V u,brain” value [7] is listed as 57 mL/g brain.
In the case of `CNC(=O)c1ccc(Oc2ccc3c(c2)CCN(C2CCC2)CC3)nc1` [[^11C]GSK189254A], the Kd [12] is given as 0.08 nM.
For `[11CH3]NC(=O)c1ccc(Oc2ccc3c(c2)CCN(C2CCC2)CC3)nc1` [[^11C]GSK189254A], the “fu,brain” value [6] is listed as 0.24.
In the case of `Cc1nccc2c1[nH]c1cc(O[11CH3])ccc12` [[^11C]Harmine], the “fu,brain” value [6] is listed as 0.04 and the “V u,brain” value [7] is listed as 25 mL/g brain.
In the case of `Cc1ccc(Sc2ccccc2CN(C)C)c(N)c1` [[^11C]MADAM], the Kd [13] is listed as 0.06 nM.
With `Cc1ccc(Sc2ccccc2CN(C)[11CH3])c(N)c1` [[^11C]MADAM] the “V u,brain” value [3] was 90 mL/g brain.
With `COc1c(O[11CH3])cccc1[C@H](O)C1CCN(CCc2ccc(F)cc2)CC1` [[^11C]MDL100907] the “V u,brain” value [7] was 17 mL/g brain.
In the case of `CSc1ccc([C@H]2CN3CCC[C@H]3c3ccccc32)cc1` [[^11C]McN5652], the Kd [13] is given as 0.2 nM.
For `[11CH3]Sc1ccc([C@H]2CN3CCC[C@H]3c3ccccc32)cc1` [[^11C]McN5652], the “V u,brain” value [3] was 238 mL/g brain.
In the case of `COc1ccccc1O[C@@H](c1ccccc1)[C@H]1CNCCO1` [[^11C]MeNER], the Kd [1] is given as 2.5 nM.
In the case of `[11CH3]Oc1ccccc1O[C@@H](c1ccccc1)[C@H]1CNCCO1` [[^11C]MeNER], the “fu,brain” value [6] is listed as 0.07 and the “V u,brain” value [7] is listed as 31 mL/g brain.
For `COc1cccc([C@H]2C[C@@H](N[C@H](C)c3ccccc3)C(=O)N2c2ccc(C(F)(F)F)cc2)c1` [[^11C]MePPEP], the Kd [14] is listed as 0.1 nM.
In the case of `C[C@@H](N[C@@H]1C[C@H](c2cccc(O[11CH3])c2)N(c2ccc(C(F)(F)F)cc2)C1=O)c1ccccc1` [[^11C]MePPEP], the “V u,brain” value [3] is reported as 296 mL/g brain.
With `[11CH3]N1CCc2cc(Cl)c(O)cc2[C@@H](c2cccc3ccoc23)C1` [[^11C]NNC112] the “V u,brain” value [3] was 70 mL/g brain.
For `COC(=O)C1C(c2ccc(C)cc2)CC2CCC1N2CC=CI` (stereo not shown) [[^11C]PE2I], the Kd [15] is listed as 4.9 nM.
With `Cc1ccc(C2CC3CCC(C2C(=O)O[11CH3])N3CC=CI)cc1` (stereo not shown) [[^11C]PE2I] the “V u,brain” value [3] was 39 mL/g brain.
In the case of `[11CH3]Nc1ccc(-c2nc3ccc(O)cc3s2)cc1` [[^11C]PIB], the “fu,brain” value [6] is listed as 0.004.
In the case of `CCC(C)N(C)C(=O)c1cc2ccccc2c(-c2ccccc2Cl)n1` (stereo not shown) [[^11C]PK11195], the “fu,brain” value [6] is listed as 0.01 and the “V u,brain” value [7] is listed as 59 mL/g brain.
In the case of `CCN1CCC[C@H]1CNC(=O)c1c(OC)ccc(Br)c1OC` [[^11C]Remoxipride], the Kd [8] is given as 270 nM.
For `[11CH3]N1CCc2cc(Cl)c(O)cc2[C@@H](c2ccccc2)C1` [[^11C]SCH23390], the “fu,brain” value [6] is listed as 0.06 and the “V u,brain” value [7] is listed as 32 mL/g brain.
In the case of `COc1ccccc1N1CCN(CCN(c2ccccn2)[11C](=O)C2CCCCC2)CC1` [[^11C]WAY100635], the “V u,brain” value [3] is reported as 14 mL/g brain.
For `[18F]c1ncccc1OC[C@@H]1CCN1` [[^18 F]2-FA-85380], the “BP ND” value [16] is listed as 1.8 and the “BP ND” value ([16]; listed as [^18F]2-FA-85380) is listed as 1.8[3].
In the case of `CNc1ccc(-c2cc3cc(O)ccc3o2)c(F)n1` [[^18 F]AZD4694], the Kd [4] is given as 2.3 nM.
For `CNc1ccc(-c2cc3cc(O)ccc3o2)c([18F])n1` [[^18 F]AZD4694], the “BP ND” value [17] is given as 1.2, the “BP ND” value ([17]; listed as [^11C]AZD4694) is given as 1.2[16] and the “V u,brain” value [3] is given as 205 mL/g brain.
In the case of `O=C(c1ccc([18F])cc1)C1CCN(CCn2c(=S)[nH]c3ccccc3c2=O)CC1` [[^18 F]Altanserin], the “BP ND” value [18] is listed as 1.06, the “BP ND” value ([18]; listed as [^18F]Altanserin) is listed as 1.06[8] and the “fu,brain” value [6] is listed as 0.02. The “V u,brain” value [7] was 122 mL/g brain.
In the case of `Cc1ccc([C@H]2C[C@@H]3CC[C@H]([C@H]2C(=O)OCCF)N3C/C=C/I)cc1` [[^18 F]FE-PE2I], the Kd [15] is listed as 12 nM.
In the case of `Cc1ccc([C@H]2C[C@@H]3CC[C@H]([C@H]2C(=O)OCC[18F])N3C/C=C/I)cc1` [[^18 F]FE-PE2I], the “BP ND” value [19] is listed as 4.1, the “BP ND” value ([19]; listed as [^11C]FE-PE2I) is listed as 4.1[27] and the “V u,brain” value [3] is listed as 62 mL/g brain.
For `CC(=O)N(Cc1ccccc1OCCF)c1cnccc1Oc1ccccc1` [[^18 F]FEPPA], the Kd [20] is listed as 0.07 nM.
In the case of `CC(=O)N(Cc1ccccc1OCC[18F])c1cnccc1Oc1ccccc1` [[^18 F]FEPPA], the “fu,brain” value [6] is given as 0.07, the “BP ND” value [21] is given as 4.4 and the “BP ND” value ([21]; listed as [^18F]FEPPA) is given as 4.4[30]. For the same compound, the “V u,brain” value [7] was 15 mL/g brain.
For `COC(=O)[C@H]1[C@@H](c2ccc(I)cc2)C[C@@H]2CC[C@H]1N2CCCF` [[^18 F]FP-CIT], the Kd [15] is given as 33 nM.
For `COC(=O)[C@H]1[C@@H](c2ccc(I)cc2)C[C@@H]2CC[C@H]1N2CCC[18F]` [[^18 F]FP-CIT], the “BP ND” value [19] is listed as 1.0, the “BP ND” value ([19]; listed as [^18F]FP-CIT) is listed as 1[32] and the “V u,brain” value [3] is listed as 36 mL/g brain.
In the case of `C=CCN1CCC[C@H]1CNC(=O)c1cc(CCCF)cc(OC)c1OC` [[^18 F]Fallypride], the Kd [8] is listed as 0.03 nM.
For `C=CCN1CCC[C@H]1CNC(=O)c1cc(CCC[18F])cc(OC)c1OC` [[^18 F]Fallypride], the “fu,brain” value [6] is given as 0.15, the “V u,brain” value [7] is given as 18 mL/g brain and the “BP ND” value [2, 23] is given as 22.2. The “BP ND” value ([2]; caudate/striatum, ref 23 (Additional file 1), listed as [^18F]Fallypride) was 22.2[23], the “BP ND” value ([2]; thalamus, 32 (Additional file 1)) was 2.11 and the “BP ND” value ([2]; thalamus, 32 (Additional file 1), listed as [^18F]Fallypride) was 2.11[23].
In the case of `COc1ccccc1N1CCN(CCN(C(=O)c2ccc([18F])cc2)c2ccccn2)CC1` [[^18 F]MPPF], the “fu,brain” value [6] is given as 0.1, the “V u,brain” value [7] is given as 14 mL/g brain and the “BP ND” value [22] is given as 1.6. The “BP ND” value ([22]; listed as [^18F]MPPF) was 1.6[51].
For `O=C(CCCN1CCC2(CC1)C(=O)NCN2c1ccccc1)c1ccc([18F])cc1` [[^18 F]Spiperone], the “V u,brain” value [3] was 147 mL/g brain.
